This note sets out measurements from ChEMBL document CHEMBL1127251, “New neplanocin analogues. III. 6R-configuration is essential for the antiviral activity of 6-C-methyl-3-deazaneplanocin a's” (Bioorg Med Chem Lett, 1994).

As usually defined, the IC50 is the midpoint of a concentration-inhibition curve. Read a low IC50 as greater potency in that assay.

Values after ≈ are worked out from the molar mass of the structure shown.

Test [1] concerns Vero. The test can be described thus: Cytotoxic effect on host cells during growth phase of virus in vero cell cultures using MTT method. It counts as functional, cell-based. Particulars: Chlorocebus sabaeus. A general note: Tetrazolium dyes change colour on reduction, which living cells bring about.
The test system of test [2] is Vero. The test can be described thus: In vitro anti-vesicular stomatitis virus activity in vero cell cultures. It counts as functional. The settings on record: Chlorocebus sabaeus, read-out: ED50 (the source's name).
For test [3], the system named is Vero. The test is described as follows: Cytotoxic effect on host cells during stationary phase of virus in vero cell cultures using MTT method. Format: functional, cell-based. Particulars: Chlorocebus sabaeus.
A short description of test [4]: Ratio of cytotoxicity, IC50(growing) to antiviral activity (ED50) was determined. It counts as functional.

Regarding `C[C@H](O)C1=C[C@@H](n2cnc3c(N)ncnc32)[C@H](O)[C@@H]1O`, the IC50 in the test on Vero [1] is greater than 100 µg/mL; in the test on Vero [3], greater than 500 µg/mL. The EC50 with Vero [2] was greater than 100 µg/mL.

As to `Nc1nccc2c1ncn2[C@@H]1C=C(CO)[C@@H](O)[C@H]1O`, the Selectivity index in test [4] is on record as 2.3. Also, the concentration for half-maximal inhibition (IC50) in the test on Vero [1] was 0.55 µg/mL (≈ 2.1 µM); in the test with Vero [3], greater than 500 µg/mL. In addition, the EC50 in the test with Vero [2] stood at 0.24 µg/mL (≈ 0.915 µM).

For the molecule `C[C@H](O)C1=C[C@@H](n2cnc3c(N)nccc32)[C@H](O)[C@@H]1O`, the results for the IC50 with Vero [1] and in the test with Vero [3] were greater than 100 µg/mL and greater than 500 µg/mL, respectively. Besides, in the test with Vero [2], the EC50 was greater than 100 µg/mL.

Turning to `C[C@@H](O)C1=C[C@@H](n2cnc3c(N)nccc32)[C@H](O)[C@@H]1O`, the Selectivity index in test [4] is reported as 12. The values for the IC50 in the test on Vero [1] and with Vero [3] were 12 µg/mL (≈ 43.4 µM) and greater than 500 µg/mL, respectively. The EC50 in the test on Vero [2] amounted to 1 µg/mL (≈ 3.62 µM).

For the molecule `C[C@@H](O)C1=C[C@@H](n2cnc3c(N)ncnc32)[C@H](O)[C@@H]1O`, in test [4], the Selectivity index was 9.2. For the same molecule, the IC50 is 2.2 µg/mL (≈ 7.93 µM) in the test on Vero [1] and greater than 500 µg/mL with Vero [3]. The EC50 with Vero [2] came out at 0.24 µg/mL (≈ 0.866 µM).

As to `Nc1ncnc2c1ncn2[C@@H]1C=C(CO)[C@@H](O)[C@H]1O` [NEOPLANOCIN A], the Selectivity index in test [4] was 1.1. Besides, the IC50 with Vero [1] turned out to be 0.26 µg/mL (≈ 0.988 µM); in the test on Vero [3] it was 152 µg/mL (≈ 577 µM). Besides, in the test with Vero [2], the EC50 stood at 0.24 µg/mL (≈ 0.912 µM).
